Measured values as given in patent publication US5225182A, “Vectored drug delivery system using a cephaloplastin linking agent and a methed of using the system” (priority 1991, dated 1993).

Assays:
[1] = tested on: bones; assay: Progesterone delivery to bones (APAAP staining); format: in vivo, mice
Method: Thirty-nine mg of finely divided progesterone were added to 2.4 ml of linking agent containing Composition C and injected into mice (see Example XII). The drug was examined for its presence in bones after 2days by taking sections of bone from ribs and staining the sections with monoclonal antibodies to progesterone using the […] labeling system as described by Cordell et al. in J. Histochem. Cytochem. 32:219 (1984).

[2] = Drug release in vitro by column elution method; format: physicochemical; settings: after 14 hrs, 37° C, saline 0.4 ml/min
Method: Using the conjugate prepared in Example XXVI, the drug release was estimated in vitro by the column elution method described below.
2.0 ml of deionized water was added to 11.6 mg of dry (lyophilized) conjugate as prepared in Example XXVI. The slurry was pipetted into 140 ×7 mm glass columns. The ends of each of the columns were filled with chromatographic caps packed with glass wool. The ends were then attached to threaded zero-volume collectors and connected to 10 mm 1:0 teflon tubing. The columns were placed in a circulating water bath at 37 ° C. Saline was pumped through columns at 0.4 ml/min flow rate with an HPLC pump (ALTEX 110A). Fractions were collected as a function of time at 4° C. and analyzed by uv/vis spectroscopy method. Results: Approximately 20% drug release was found in samples taken after 14 hrs.

[3] = tested on: liver; assay: Liver function tests on blood samples; format: in vivo, mice; settings: after ten days of treatment
Method: Four groups of six male F1 hybrid mice (C57BL/6X DBA/2) 6-8 weeks old (20-25g body weight) were used for the study. […] Three additional mice were used as normal untreated controls.
In Examples VIII and IX, 8 mg/kg doses were administered intravenously.
The total number of nucleated cells, that is, the total number of total white blood cells, was counted with a Coulter counter and a blood film was prepared simultaneously for lymphocyte-to-neutrophil (L/N) ratio.
Liver function tests were performed on blood samples after ten days of treatment with the solutions (see Example III). Four doses were administered each day.

[4] = tested on: K1210 leukemia cells; assay: Effect on mice implanted with leukemia cells; format: in vivo, DBF mice; settings: 8 mg/kg i.v.
Method: (§1) All experimental animals were injected intravenously (IV) with 0.5 mg doses of cis-Platinum to a final concentration of […] body weight, maximum volume 0.2 mL/mouse. The above protocol was used in Examples II-VI. In Examples VIII and IX, 8 mg/kg doses were administered intravenously.
DBF mice were planted intraperitoneally with 10^4 K1210 leukemia cells. Three days later, 8 mg/kg of cis-Platinum in saline and cis-Platinum conjugate preparation was given intravenously via a tail vein.

[5] = tested on: L1210 leukemia cells; assay: Effect on in vivo tumor cells (L1210 leukemia); design: species or system DBA mice; settings: 8 mg/kg iv
Method: as §1
10^4 L1210 leukemia cells were transplanted intravenously (iv) into DBA mice. Three days later the animals received 8 mg/kg cis-Platinum in saline or 8 mg/kg cisplatinum-conjugate administered (iv) (3 animals/group)

[6] = tested on: lung; assay: Biodistribution by gamma camera with technicium Tc-99 m; format: in vivo, mice; settings: Tc-99 m given 30 min after injection
Method: Four groups of six male F1 hybrid mice (C57BL/6X DBA/2) 6-8 weeks old (20-25g body weight) were used for the study. Group A received unconjugated cis-Platinum; the second group, B, received cis-Platinum conjugated with the organ-specific vectoring reagent macroaggregated albumin (MAA). Group C received cis-Platinum conjugated with colloidal sulfur particles. Group D was injected with MAA alone, with no cis-Platinum conjugated or unconjugated, and served as controls. Three additional mice were used as normal untreated controls.
as §1
Thirty minutes after injecting the mice with either agent, one millicurie of technicium Tc-99 m was injected IV and the mice placed under a gamma camera to trace the cis-Platinum.
Similar patterns of activity were seen when both groups of mice were injected after three days.

[7] = tested on: Colon 38 tumors; assay: Antitumor tests, in vitro; format: cell-based, murine; settings: Colon 38, in vitro, 21 days
Method: Lewis lung murine tumors of the biological type lung carcinoma were implanted subcutaneously in the group B C57BL/6 mice. Colon 38 of the histological type colon carcinoma was implanted in group C57BL/6. Three mice from group A were implanted with Lewis lung tumors and the remaining three were implanted with colon 38 tumors subcutaneously. Three mice from control group D were implanted with Lewis lung tumors and three with colon 38 tumors.
The antitumor activity of both solutions was tested in vitro. Colon 38 tumors were used for in vitro screening of the antitumor effect. Tumors were place in 10ml solution of each of the agents. The tumors were removed after 21 days of culture growth and examined for weight loss and shrinkage in size.

Row | Compound | delivery to the bones ([1]; after 2 days, sections of rib bone) | retention in bones as an active molecule ([1]; mouse, in vivo) | drug release [2] | Prothrombin clotting time [3] | SGOT [3] | SGPT [3] | Serum bilirubin [3] | % ILS [4] [%] | Incr. Life Span (ILS) [5] [%] | distribution of the radioisotope in organs in the abdomen [6] | Shrinkage [7] [%] | Weight loss [7] [%]
1 | progesterone | effectively delivered to the bones | up to 21 days | Approximately 20% | – | – | – | – | – | – | – | – | –
2 | N.N.[Cl-].[Cl-].[Pt+2] [cis-Pt, cis-Platinum (II) Diammine Dichloride] | – | – | – | 16 | 120 | 112 | 3.8 | 80 | 111 | even distribution of the radioisotope in all organs in the abdomen | 41 | 63
